Columns and labels:
soluble and surface CD23 = experiment: Interaction of p30A with soluble and surface CD23 (inferred); format: binding, human
Protocol: (§1) Figure 1 Specific blockade of CD23 reactivity by p30A. Flow cytometry analysis showing the inhibition of (A) anti-CD23-FITC (20 µg/ml) or (B) IgE (10 µg/ml)/anti-IgE-FITC (1 µg/ml) binding to CD23^+ human PBL-derived macrophages (red lines) or following their pre-incubation with p30A peptides (10 µg/ml) (blue lines). (C) CD23 western blot was performed on total protein extract from à CD23^+ B-cell line. The detection with CD23-McAb followed the pre-incubation of the blot with or without p30A (10 µg/ml). Similar protein quantity (50 µg) was used for each western blot condition.
As control (pCtl), we have used synthetic heptapeptide with unrelated sequence (SFNYNYA).
Total cellular proteins were isolated from CD23^+, ADAM B-cell line in cell lysis buffer (10 mM Tris pH 8.0, 150 mM NaCl, 5 mM EDTA, 1% Triton X-100, 0.05% SDS, 10 mM Sodium Fluoride, 1 mM Sodium Orthovanadate, 5 µM Molibdic Acid) and a mixture of protease inhibitors (all from Sigma Aldrich, Saint Quentin Fallavier, France). Protein concentration was determined using the Bradford assay (Bio Rad, Hemel Hempstead, UK). Protein samples (50 µg total protein) were subjected to SDS-PAGE using a 12% resolving gel. […] Immunoreactive bands (CD23 and Bcl2) were detected using the FluorChem 8800 (Alpha Innotech, San Leandro, USA) and semi-quantified by densitometry using AlphaEase FC (Alpha Innotech).

[1] = tested on: RA patients derived monocytes/macrophages; experiment: Inflammatory mediator release from rheumatoid arthritis patients' monocytes/macrophages; format: cell-based, human; conditions: peripheral and synovial fluid monocytes/macrophages of 7 RA patients; 1 h pre-incubation, CD23 activation; 72 h
Excerpt: Figure 5 p30A inhibits the production of CD23-dependent inflammatory mediator release in cells from rheumatoid arthritis (RA) patients. (A) PBL and synovial monocytes/macrophages from RA patients were labeled with anti-CD23-FITC or isotype-matched (Iso) McAb and compared to healthy PBL. Representative fluorescence intensity data obtained from one case, out of 11 distinct patients or healthy individuals. (B) Inhibition of inflammatory mediator release from RA patients derived monocytes/macrophages. PBL monocytes or macrophages collected from synovial liquid were activated through CD23 after 1 h pre-incubation with/without p30A or pCtl. Cell supernatants were collected 72 h later and nitrites, TNF-α and IL-6 were quantified. Values are expressed as mean±s.e.m from 7 patients' cells.
Peripheral blood samples pre-tested for the absence of HIV or hepatitis virus infections were obtained from healthy volunteers (EFS Aquitaine, Bordeaux Blood Bank). We also collected paired peripheral blood and synovial fluid from seven patients, who fulfilled the American College of Rheumatology criteria for RA, during arthritic crisis. Written informed consent was obtained from all the patients. This study was carried out in compliance with the Helsinski Declaration and was approved by the National Ethical Authorities. All seven patients had previously received conventional therapy but none has been given TNF blocker or any other biologic treatment for their condition. […]
Monocytes or macrophages were activated through CD23 pathway: while monocytes/macrophages from RA patients express CD23, monocytes from healthy donors must be pre-activated to express surface CD23 as described. […] Cells supernatants were then analyzed for their nitric oxide content (see below) and for the presence of cytokines: levels of TNF-α and IL-6 were determined in duplicates for each sample by a specific ELISA (R&D, Paris, France) while levels of IL-1β, IL-8 and IL-10 was determined using FlowCytomix Human Th1/Th2 Kit as recommended (Bender Medsystems, Vienna, Austria). […]

human CD23 [2] = experiment: Flow cytometry, inhibition of anti-CD23-FITC McAb binding to human macrophages; conditions: human PBL-derived CD23+ macrophages, p30A 10 µg/ml pre-incubation, anti-CD23-FITC 20 µg/ml
Protocol: as §1

human CD23 [3] = experiment: Flow cytometry, inhibition of IgE/anti-IgE-FITC binding to human CD23+ macrophages; conditions: p30A 10 µg/ml pre-incubation, IgE 10 µg/ml, anti-IgE-FITC 1 µg/ml
Protocol: as §1

FHENWPS [p30A]
binding to human CD23 (soluble and surface CD23): specifically bound human and rat CD23
affinity of interaction with soluble and surface CD23 relative to McAb or IgE-anti-IgE (soluble and surface CD23; authors' inference from Figure 1A-C, Kd not given): interacts with both soluble and surface CD23 forms with a higher affinity than specific McAb or IgE-anti-IgE immune complexes
IL-6 release [1]: reversed inflammatory mediators at the same levels than control cell-supernatants
TNF-α release [1]: reversed inflammatory mediators at the same levels than control cell-supernatants
nitric oxide (nitrites) release [1]: reversed inflammatory mediators at the same levels than control cell-supernatants
inhibition of FITC-conjugated anti-CD23 McAb binding (human CD23 [2]): inhibits the binding of FITC-conjugated anti-CD23 McAb
block of IgE/anti-IgE-FITC binding (human CD23 [3]): block, on the one hand, the binding of IgE/anti-IgE-FITC to human CD23^+ macrophages
